Laboratory results reported in patent US20090298820A1, “3-SUBSTITUTED-1H-PYRROLO[2,3-B]PYRIDINE AND 3-SUBSTITUTED-1H-PYRROLO[3,2-B]PYRIDINE COMPOUNDS, THEIR USE AS MTOR KINASE AND PI3 KINASE INHIBITORS, AND THEIR SYNTHESES” (Wyeth, priority 2008, published 2009).

Tests used:
[1] = target: PI3Kγ (Homo sapiens, UniProt P48736); assay: PI3K-gamma fluorescence polarization assay; type: biochemical; conditions: read-out: PI3Kγ Median IC50
[2] = target: PI3Kα (Homo sapiens, UniProt P42336); assay: PI3K-alpha fluorescence polarization assay; type: biochemical; conditions: read-out: PI3Kα Median IC50
[3] = target: mTOR (Homo sapiens, UniProt P42345); assay: mTOR enzyme assay (DELFIA format, His6-S6K substrate); type: biochemical; conditions: read-out: mTOR Kinase Median IC50

Sequence of PI3Kα (P42336 whole entry, species assumed): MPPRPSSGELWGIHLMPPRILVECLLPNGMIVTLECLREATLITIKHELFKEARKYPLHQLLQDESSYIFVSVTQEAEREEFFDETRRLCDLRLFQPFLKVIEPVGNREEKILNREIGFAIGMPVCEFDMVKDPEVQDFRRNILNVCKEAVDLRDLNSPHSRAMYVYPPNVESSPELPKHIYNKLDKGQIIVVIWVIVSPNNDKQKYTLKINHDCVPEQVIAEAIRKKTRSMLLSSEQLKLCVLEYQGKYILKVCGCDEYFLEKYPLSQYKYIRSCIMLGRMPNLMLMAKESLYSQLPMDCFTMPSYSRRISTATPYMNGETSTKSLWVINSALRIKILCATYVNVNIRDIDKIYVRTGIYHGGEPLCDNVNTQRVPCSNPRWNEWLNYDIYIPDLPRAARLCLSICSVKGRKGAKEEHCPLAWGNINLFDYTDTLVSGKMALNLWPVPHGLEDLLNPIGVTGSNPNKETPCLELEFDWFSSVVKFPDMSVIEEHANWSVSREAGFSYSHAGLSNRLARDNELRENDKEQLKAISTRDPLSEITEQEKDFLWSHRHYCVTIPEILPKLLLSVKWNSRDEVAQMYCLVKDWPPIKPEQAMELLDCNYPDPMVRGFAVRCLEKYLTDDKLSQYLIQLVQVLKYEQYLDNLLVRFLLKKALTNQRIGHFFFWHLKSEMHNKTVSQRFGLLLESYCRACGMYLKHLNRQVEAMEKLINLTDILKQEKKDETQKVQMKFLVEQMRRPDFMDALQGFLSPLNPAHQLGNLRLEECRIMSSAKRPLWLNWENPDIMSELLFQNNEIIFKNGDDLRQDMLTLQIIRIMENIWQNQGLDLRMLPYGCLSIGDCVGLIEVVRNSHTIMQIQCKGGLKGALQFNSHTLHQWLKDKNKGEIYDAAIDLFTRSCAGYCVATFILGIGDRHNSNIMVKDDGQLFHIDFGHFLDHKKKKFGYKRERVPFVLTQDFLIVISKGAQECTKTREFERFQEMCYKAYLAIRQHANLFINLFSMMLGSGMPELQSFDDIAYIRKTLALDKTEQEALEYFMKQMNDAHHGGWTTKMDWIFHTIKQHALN
Sequence of PI3Kα (P27986 whole entry partner, species assumed): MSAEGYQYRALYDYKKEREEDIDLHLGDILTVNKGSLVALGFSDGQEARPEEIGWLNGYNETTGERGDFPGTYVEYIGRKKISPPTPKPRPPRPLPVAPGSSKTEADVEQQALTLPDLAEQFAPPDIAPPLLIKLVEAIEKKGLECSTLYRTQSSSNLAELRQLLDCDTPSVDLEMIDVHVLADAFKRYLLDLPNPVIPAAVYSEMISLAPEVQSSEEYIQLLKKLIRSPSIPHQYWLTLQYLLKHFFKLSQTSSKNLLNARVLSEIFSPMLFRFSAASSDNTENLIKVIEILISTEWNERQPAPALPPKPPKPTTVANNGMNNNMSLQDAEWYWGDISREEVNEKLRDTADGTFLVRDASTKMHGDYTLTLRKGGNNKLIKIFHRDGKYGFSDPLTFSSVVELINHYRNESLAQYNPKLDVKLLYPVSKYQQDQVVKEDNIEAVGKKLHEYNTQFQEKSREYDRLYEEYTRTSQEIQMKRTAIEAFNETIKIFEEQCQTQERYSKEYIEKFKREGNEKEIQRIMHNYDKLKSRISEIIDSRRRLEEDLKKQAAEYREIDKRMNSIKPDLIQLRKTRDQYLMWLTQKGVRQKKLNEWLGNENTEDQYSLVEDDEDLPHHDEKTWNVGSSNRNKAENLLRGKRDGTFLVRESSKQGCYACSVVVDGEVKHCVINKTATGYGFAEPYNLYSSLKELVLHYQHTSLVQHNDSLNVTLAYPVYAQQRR
Sequence of PI3Kγ (P48736 whole entry, species assumed): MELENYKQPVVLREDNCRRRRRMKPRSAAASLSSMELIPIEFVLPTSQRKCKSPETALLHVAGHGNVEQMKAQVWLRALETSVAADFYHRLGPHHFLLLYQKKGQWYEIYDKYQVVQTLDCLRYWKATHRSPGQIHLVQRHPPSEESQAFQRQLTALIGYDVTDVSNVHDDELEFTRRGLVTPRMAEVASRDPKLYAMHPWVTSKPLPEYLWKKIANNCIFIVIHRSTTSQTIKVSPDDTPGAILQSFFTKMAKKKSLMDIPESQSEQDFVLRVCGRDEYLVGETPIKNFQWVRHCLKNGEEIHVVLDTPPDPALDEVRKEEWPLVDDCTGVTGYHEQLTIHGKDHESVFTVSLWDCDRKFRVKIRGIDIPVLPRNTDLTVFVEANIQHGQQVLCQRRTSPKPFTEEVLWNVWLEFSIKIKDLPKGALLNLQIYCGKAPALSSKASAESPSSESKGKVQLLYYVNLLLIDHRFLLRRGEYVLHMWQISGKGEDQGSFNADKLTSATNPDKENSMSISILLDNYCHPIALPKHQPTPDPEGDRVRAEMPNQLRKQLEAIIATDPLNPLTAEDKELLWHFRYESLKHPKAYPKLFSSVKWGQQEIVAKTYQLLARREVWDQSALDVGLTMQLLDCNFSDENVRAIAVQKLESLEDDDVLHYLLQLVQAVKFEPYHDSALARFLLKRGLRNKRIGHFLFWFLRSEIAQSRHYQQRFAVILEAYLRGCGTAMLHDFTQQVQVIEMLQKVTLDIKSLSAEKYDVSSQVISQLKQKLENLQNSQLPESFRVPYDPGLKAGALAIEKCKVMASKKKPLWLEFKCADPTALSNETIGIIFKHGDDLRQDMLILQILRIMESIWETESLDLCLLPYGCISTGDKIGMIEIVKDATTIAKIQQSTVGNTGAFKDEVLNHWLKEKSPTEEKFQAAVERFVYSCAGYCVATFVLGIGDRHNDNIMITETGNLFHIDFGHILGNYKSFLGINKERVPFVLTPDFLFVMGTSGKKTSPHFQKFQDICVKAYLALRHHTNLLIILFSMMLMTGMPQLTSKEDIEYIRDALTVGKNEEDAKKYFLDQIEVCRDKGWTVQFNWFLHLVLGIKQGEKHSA

Row | SMILES | IC50 [1] | melting point | IC50 [2] | IC50 [3]
1 | Cn1cc(/C=C2\Oc3ccc(C(=O)O)cc3C2=O)c2c(-c3ccccc3)ccnc21 [Compound 176, (2Z)-2-[(1-methyl-4-phenyl-1H-pyrrolo[2,3-b]pyridin-3-yl)methylidene]-3-oxo-2,3-dihydro-1-benzofuran-5-carboxylic acid] | > 10000 nM | 329 to 342 °C | > 10000 nM | 445 nM
2 | CN(C)CCNC(=O)c1ccc2c(c1)C(=O)/C(=C/c1cn(C)c3nccc(-c4ccccc4)c13)O2 [Compound 187, (2Z)-N-[2-(dimethylamino)ethyl]-2-[(1-methyl-4-phenyl-1H-pyrrolo[2,3-b]pyridin-3-yl)methylidene]-3-oxo-2,3-dihydro-1-benzofuran-5-carboxamide] | 99 nM | 255 to 256 °C | 34 nM | 195 nM
3 | CN1CCN(C(=O)Nc2ccc3c(c2)C(=O)/C(=C/c2cn(C)c4nccc(-c5ccccc5)c24)O3)CC1 [Compound 188, 4-methyl-N-{(2Z)-2-[(1-methyl-4-phenyl-1H-pyrrolo[2,3-b]pyridin-3-yl)methylidene]-3-oxo-2,3-dihydro-1-benzofuran-5-yl}piperazine-1-carboxamide] | > 10000 nM | 211 to 213 °C | > 10000 nM | 2450 nM
4 | CN(C)C(=O)C1CCN(c2ccnc3c2c(/C=C2\Oc4ccc(NC(=O)Nc5cccnc5)cc4C2=O)cn3C)CC1 [Compound 189, N,N-dimethyl-1-{1-methyl-3-[(Z)-{3-oxo-5-[(pyridin-3-ylcarbamoyl)amino]-1-benzofuran-2(3H)-ylidene}methyl]-1H-pyrrolo[2,3-b]pyridin-4-yl}piperidine-4-carboxamide] | 2040 nM | 165 to 175 °C (dec.) | 2030 nM | 10.5 nM
5 | CN(C)CCNC(=O)Nc1ccc2c(c1)C(=O)/C(=C/c1cn(C)c3nccc(N4CC5CCC(C4)O5)c13)O2 [Compound 193, 1-[2-(dimethylamino)ethyl]-3-[(2Z)-2-{[1-methyl-4-(8-oxa-3-azabicyclo[3.2.1]oct-3-yl)-1H-pyrrolo[2,3-b]pyridin-3-yl]methylidene}-3-oxo-2,3-dihydro-1-benzofuran-5-yl]urea] | 45 nM | 175 to 180 °C | 24 nM | 5.6 nM
6 | CN1CCN(CCNC(=O)Nc2ccc3c(c2)C(=O)/C(=C/c2cn(C)c4nccc(N5CC6CCC(C5)O6)c24)O3)CC1 [Compound 194, 1-[(2Z)-2-{[1-methyl-4-(8-oxa-3-azabicyclo[3.2.1]oct-3-yl)-1H-pyrrolo[2,3-b]pyridin-3-yl]methylidene}-3-oxo-2,3-dihydro-1-benzofuran-5-yl]-3-[2-(4-methylpiperazin-1-yl)ethyl]urea] | 472 nM | 170 to 172 °C | 237 nM | 34 nM
7 | Cn1cc(/C=C2\Oc3ccc(C(=O)O)cc3C2=O)c2c(N3CC4CCC(C3)O4)ccnc21 [Compound 197, (2Z)-2-{[1-methyl-4-(8-oxa-3-azabicyclo[3.2.1]oct-3-yl)-1H-pyrrolo[2,3-b]pyridin-3-yl]methylidene}-3-oxo-2,3-dihydro-1-benzofuran-5-carboxylic acid] | 3000 nM | 285 to 289 °C | 2370 nM | 130 nM
8 | Cn1cc(/C=C2\Oc3ccc(NC(=O)Nc4ccncc4)cc3C2=O)c2c(N3CC4CCC(C3)O4)ccnc21 [Compound 198, 1-[(2Z)-2-{[1-methyl-4-(8-oxa-3-azabicyclo[3.2.1]oct-3-yl)-1H-pyrrolo[2,3-b]pyridin-3-yl]methylidene}-3-oxo-2,3-dihydro-1-benzofuran-5-yl]-3-pyridin-4-ylurea] | 249 nM | 257 to 259 °C | 293 nM | 19.5 nM
9 | Cn1cc(/C=C2\Oc3ccc(NC(=O)NCCCCl)cc3C2=O)c2c(N3CC4CCC(C3)O4)ccnc21 [Compound 240, 1-(3-chloropropyl)-3-[(2Z)-2-{[1-methyl-4-(8-oxa-3-azabicyclo[3.2.1]oct-3-yl)-1H-pyrrolo[2,3-b]pyridin-3-yl]methylene}-3-oxo-2,3-dihydro-1-benzofuran-5-yl]urea] | 2180 nM | 234 to 241 °C | 1060 nM | 105 nM
10 | CN(C)CCCNC(=O)Nc1ccc2c(c1)C(=O)/C(=C/c1cn(C)c3nccc(N4CC5CCC(C4)O5)c13)O2 [Compound 241, 1-[3-(dimethylamino)propyl]-3-[(2Z)-2-{[1-methyl-4-(8-oxa-3-azabicyclo[3.2.1]oct-3-yl)-1H-pyrrolo[2,3-b]pyridin-3-yl]methylene}-3-oxo-2,3-dihydro-1-benzofuran-5-yl]urea] | 34 nM | 261 to 263 °C | 53 nM | 10.5 nM
11 | COCCN(C)CCCNC(=O)Nc1ccc2c(c1)C(=O)/C(=C/c1cn(C)c3nccc(N4CC5CCC(C4)O5)c13)O2 [Compound 242, 1-{3-[(2-methoxyethyl)(methyl)amino]propyl}-3-[(2Z)-2-{[1-methyl-4-(8-oxa-3-azabicyclo[3.2.1]oct-3-yl)-1H-pyrrolo[2,3-b]pyridin-3-yl]methylene}-3-oxo-2,3-dihydro-1-benzofuran-5-yl]urea] | 781 nM | 158 to 163 °C | 243 nM | 64.5 nM
12 | COCCN(C)C(=O)C1CCN(c2ccnc3c2c(/C=C2\Oc4ccc(NC(=O)Nc5cccnc5)cc4C2=O)cn3C)CC1 [Compound 246, N-(2-methoxyethyl)-N-methyl-1-{1-methyl-3-[(Z)-{3-oxo-5-[(pyridin-3-ylcarbamoyl)amino]-1-benzofuran-2(3H)-ylidene}methyl]-1H-pyrrolo[2,3-b]pyridin-4-yl}piperidine-4-carboxamide] | 1540 nM | 282 to 285 °C | 1420 nM | 30.5 nM
13 | Cn1cc(/C=C2\Oc3ccc(NC(=O)Nc4cccnc4)cc3C2=O)c2c(N3CCC(C(=O)N4CC5CCC(C4)O5)CC3)ccnc21 [Compound 250, 1-[(2Z)-2-({1-methyl-4-[4-(8-oxa-3-azabicyclo[3.2.1]oct-3-ylcarbonyl)piperidin-1-yl]-1H-pyrrolo[2,3-b]pyridin-3-yl}methylene)-3-oxo-2,3-dihydro-1-benzofuran-5-yl]-3-pyridin-3-ylurea] | 2820 nM | 260 to 265 °C | 1680 nM | 17 nM
14 | COCCN(CCOC)C(=O)C1CCN(c2ccnc3c2c(/C=C2\Oc4ccc(NC(=O)Nc5cccnc5)cc4C2=O)cn3C)CC1 [Compound 251, N,N-bis(2-methoxyethyl)-1-{1-methyl-3-[(Z)-{3-oxo-5-[(pyridin-3-ylcarbamoyl)amino]-1-benzofuran-2(3H)-ylidene}methyl]-1H-pyrrolo[2,3-b]pyridin-4-yl}piperidine-4-carboxamide] | 5580 nM | 206 to 210 °C | 4050 nM | 16 nM
15 | CN(Cc1ccncc1)C(=O)C1CCN(c2ccnc3c2c(/C=C2\Oc4ccc(NC(=O)Nc5cccnc5)cc4C2=O)cn3C)CC1 [Compound 255, N-methyl-1-{1-methyl-3-[(Z)-{3-oxo-5-[(pyridin-3-ylcarbamoyl)amino]-1-benzofuran-2(3H)-ylidene}methyl]-1H-pyrrolo[2,3-b]pyridin-4-yl}-N-(pyridin-4-ylmethyl)piperidine-4-carboxamide] | 2410 nM | 125 to 135 °C | 1230 nM | 9.3 nM
16 | CN(Cc1cccnc1)C(=O)C1CCN(c2ccnc3c2c(/C=C2\Oc4ccc(NC(=O)Nc5cccnc5)cc4C2=O)cn3C)CC1 [Compound 256, N-methyl-1-{1-methyl-3-[(Z)-{3-oxo-5-[(pyridin-3-ylcarbamoyl)amino]-1-benzofuran-2(3H)-ylidene}methyl]-1H-pyrrolo[2,3-b]pyridin-4-yl}-N-(pyridin-3-ylmethyl)piperidine-4-carboxamide] | 1610 nM | 195 to 205 °C | 1020 nM | 10.9 nM
17 | CN(Cc1ccccn1)C(=O)C1CCN(c2ccnc3c2c(/C=C2\Oc4ccc(NC(=O)Nc5cccnc5)cc4C2=O)cn3C)CC1 [Compound 257, N-methyl-1-{1-methyl-3-[(Z)-{3-oxo-5-[(pyridin-3-ylcarbamoyl)amino]-1-benzofuran-2(3H)-ylidene}methyl]-1H-pyrrolo[2,3-b]pyridin-4-yl}-N-(pyridin-2-ylmethyl)piperidine-4-carboxamide] | 1400 nM | 187 to 189 °C | 1570 nM | 8.4 nM
18 | Cn1cc(/C=C2\Oc3ccc(NC(=O)Nc4cccnc4)cc3C2=O)c2c(N3CCC(C(=O)Nc4cccnc4)CC3)ccnc21 [Compound 262, 1-{1-methyl-3-[(Z)-{3-oxo-5-[(pyridin-3-ylcarbamoyl)amino]-1-benzofuran-2(3H)-ylidene}methyl]-1H-pyrrolo[2,3-b]pyridin-4-yl}-N-pyridin-3-ylpiperidine-4-carboxamide] | 10500 nM | 180 to 190 °C (dec.) | 2890 nM | 14.5 nM
19 | Cn1cc(/C=C2\Oc3ccc(NC(=O)Nc4cccnc4)cc3C2=O)c2c(N3CCC(C(=O)Nc4ccncc4)CC3)ccnc21 [Compound 263, 1-{1-methyl-3-[(Z)-{3-oxo-5-[(pyridin-3-ylcarbamoyl)amino]-1-benzofuran-2(3H)-ylidene}methyl]-1H-pyrrolo[2,3-b]pyridin-4-yl}-N-pyridin-4-ylpiperidine-4-carboxamide] | 8210 nM | 230 to 235 °C (dec.) | 15500 nM | 25 nM
20 | Cn1cc(/C=C2\Oc3ccc(NC(=O)Nc4cccnc4)cc3C2=O)c2c(N3CCC(C(=O)N4CC5CC4CN5)CC3)ccnc21 (centres unmarked) [Compound 264, 1-[(2Z)-2-({4-[4-(2,5-diazabicyclo[2.2.1]hept-2-ylcarbonyl)piperidin-1-yl]-1-methyl-1H-pyrrolo[2,3-b]pyridin-3-yl}methylene)-3-oxo-2,3-dihydro-1-benzofuran-5-yl]-3-pyridin-3-ylurea] | 378 nM | 257 to 262 °C (dec.) | 6360 nM | 16.5 nM
